Reference: article PMC6199744, “Development of Chemical Proteomics for the Folateome and Analysis of the Kinetoplastid Folateome” (ACS Infectious Diseases, 2018)
Read-outs that look alike come from different tables or passages of the source.

Experiments:
Format in all cases: binding
[1] = molecular target: T1, HeLa cell extract proteins (Homo sapiens, UniProt Q9NQX3)
T1 construct: endogenous in cells; host or cells: HeLa cell extract
T1 sequence (Q9NQX3 1-736): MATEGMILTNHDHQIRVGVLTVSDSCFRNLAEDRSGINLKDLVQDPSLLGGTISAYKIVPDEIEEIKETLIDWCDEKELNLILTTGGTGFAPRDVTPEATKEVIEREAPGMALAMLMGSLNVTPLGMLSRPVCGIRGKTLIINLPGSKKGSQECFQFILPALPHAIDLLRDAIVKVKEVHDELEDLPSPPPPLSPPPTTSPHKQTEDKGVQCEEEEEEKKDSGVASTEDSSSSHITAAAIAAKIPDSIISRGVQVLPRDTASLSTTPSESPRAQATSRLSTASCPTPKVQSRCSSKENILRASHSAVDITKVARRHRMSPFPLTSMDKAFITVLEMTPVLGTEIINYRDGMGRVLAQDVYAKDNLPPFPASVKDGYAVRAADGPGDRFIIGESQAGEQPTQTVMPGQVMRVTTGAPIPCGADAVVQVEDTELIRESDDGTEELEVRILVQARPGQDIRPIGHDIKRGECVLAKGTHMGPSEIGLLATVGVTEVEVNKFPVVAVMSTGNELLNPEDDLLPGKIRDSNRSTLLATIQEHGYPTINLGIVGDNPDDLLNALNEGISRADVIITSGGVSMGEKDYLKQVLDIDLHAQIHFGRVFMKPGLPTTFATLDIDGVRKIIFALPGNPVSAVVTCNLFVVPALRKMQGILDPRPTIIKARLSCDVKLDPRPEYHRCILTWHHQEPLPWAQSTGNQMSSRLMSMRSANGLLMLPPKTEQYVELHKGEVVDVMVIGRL

[2] = molecular target: T2, HeLa cell extract proteins (Homo sapiens, UniProt Q99439)
T2 construct: endogenous in cells; host or cells: HeLa cell extract
T2 sequence (Q99439 1-309): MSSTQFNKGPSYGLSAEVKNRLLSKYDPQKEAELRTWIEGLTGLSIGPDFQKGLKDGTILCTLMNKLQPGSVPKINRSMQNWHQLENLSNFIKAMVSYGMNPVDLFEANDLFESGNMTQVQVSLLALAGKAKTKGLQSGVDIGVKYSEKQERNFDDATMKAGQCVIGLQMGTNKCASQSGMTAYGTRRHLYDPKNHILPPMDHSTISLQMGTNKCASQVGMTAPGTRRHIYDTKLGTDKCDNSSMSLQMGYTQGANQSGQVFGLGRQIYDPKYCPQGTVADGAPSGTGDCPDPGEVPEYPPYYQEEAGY

[3] = molecular target: T3, HeLa cell extract proteins (Homo sapiens, UniProt Q9NVI1)
T3 construct: endogenous in cells; host or cells: HeLa cell extract
T3 sequence (Q9NVI1 1-1328): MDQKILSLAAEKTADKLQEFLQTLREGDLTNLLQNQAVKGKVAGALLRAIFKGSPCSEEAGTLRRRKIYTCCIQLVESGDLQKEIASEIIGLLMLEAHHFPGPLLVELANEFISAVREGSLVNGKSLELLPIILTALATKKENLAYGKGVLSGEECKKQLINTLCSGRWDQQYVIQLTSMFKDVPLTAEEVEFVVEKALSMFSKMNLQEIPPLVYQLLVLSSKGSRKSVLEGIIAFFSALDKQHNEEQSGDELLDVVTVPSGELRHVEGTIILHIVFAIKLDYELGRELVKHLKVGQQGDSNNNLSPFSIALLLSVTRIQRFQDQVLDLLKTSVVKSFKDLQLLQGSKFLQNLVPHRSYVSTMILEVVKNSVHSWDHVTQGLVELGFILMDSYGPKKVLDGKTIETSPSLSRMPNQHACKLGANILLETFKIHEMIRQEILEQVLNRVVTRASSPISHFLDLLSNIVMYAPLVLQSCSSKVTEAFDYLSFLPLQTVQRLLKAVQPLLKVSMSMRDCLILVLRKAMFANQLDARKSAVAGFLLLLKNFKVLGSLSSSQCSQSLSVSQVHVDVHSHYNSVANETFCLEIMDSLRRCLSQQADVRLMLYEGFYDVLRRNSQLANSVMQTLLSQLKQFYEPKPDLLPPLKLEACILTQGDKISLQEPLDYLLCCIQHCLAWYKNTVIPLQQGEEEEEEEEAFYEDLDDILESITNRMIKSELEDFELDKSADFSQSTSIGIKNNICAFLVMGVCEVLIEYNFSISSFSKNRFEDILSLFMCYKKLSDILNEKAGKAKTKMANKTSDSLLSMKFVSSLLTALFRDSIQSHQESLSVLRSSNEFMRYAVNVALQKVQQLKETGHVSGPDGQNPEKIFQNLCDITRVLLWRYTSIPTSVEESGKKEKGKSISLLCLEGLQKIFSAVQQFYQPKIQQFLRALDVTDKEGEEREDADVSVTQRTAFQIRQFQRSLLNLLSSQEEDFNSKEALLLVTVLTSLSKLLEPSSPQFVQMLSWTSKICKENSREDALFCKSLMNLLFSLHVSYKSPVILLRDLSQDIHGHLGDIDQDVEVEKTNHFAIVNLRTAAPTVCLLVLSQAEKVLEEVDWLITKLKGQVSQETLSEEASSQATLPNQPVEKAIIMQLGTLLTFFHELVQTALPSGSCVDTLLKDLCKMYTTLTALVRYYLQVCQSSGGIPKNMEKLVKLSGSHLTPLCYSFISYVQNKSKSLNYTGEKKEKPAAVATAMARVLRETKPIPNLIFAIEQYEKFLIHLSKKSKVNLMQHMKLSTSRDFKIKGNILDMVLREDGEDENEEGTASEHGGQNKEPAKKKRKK

[4] = molecular target: T4, HeLa cell extract proteins (Homo sapiens, UniProt P16219)
T4 construct: endogenous in cells; host or cells: HeLa cell extract
T4 sequence (P16219 25-412): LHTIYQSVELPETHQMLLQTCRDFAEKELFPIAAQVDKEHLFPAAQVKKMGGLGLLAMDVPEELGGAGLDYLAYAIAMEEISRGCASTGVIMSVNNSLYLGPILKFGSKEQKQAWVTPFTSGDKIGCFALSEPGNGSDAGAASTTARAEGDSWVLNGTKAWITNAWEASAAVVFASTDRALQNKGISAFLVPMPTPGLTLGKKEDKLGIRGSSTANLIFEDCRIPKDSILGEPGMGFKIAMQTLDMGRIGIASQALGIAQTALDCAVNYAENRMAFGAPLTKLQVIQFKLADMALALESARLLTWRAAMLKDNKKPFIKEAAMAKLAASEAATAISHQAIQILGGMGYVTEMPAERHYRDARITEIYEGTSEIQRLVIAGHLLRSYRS

[5] = molecular target: T5, HeLa cell extract proteins (Homo sapiens, UniProt P20674)
T5 construct: endogenous in cells; host or cells: HeLa cell extract
T5 sequence (P20674 42-150): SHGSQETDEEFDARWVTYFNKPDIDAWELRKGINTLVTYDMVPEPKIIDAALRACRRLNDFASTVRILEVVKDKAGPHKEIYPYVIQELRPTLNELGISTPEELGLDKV

[6] = molecular target: T6, HeLa cell extract proteins (Homo sapiens, UniProt Q92621)
T6 construct: endogenous in cells; host or cells: HeLa cell extract
T6 sequence (Q92621 whole entry): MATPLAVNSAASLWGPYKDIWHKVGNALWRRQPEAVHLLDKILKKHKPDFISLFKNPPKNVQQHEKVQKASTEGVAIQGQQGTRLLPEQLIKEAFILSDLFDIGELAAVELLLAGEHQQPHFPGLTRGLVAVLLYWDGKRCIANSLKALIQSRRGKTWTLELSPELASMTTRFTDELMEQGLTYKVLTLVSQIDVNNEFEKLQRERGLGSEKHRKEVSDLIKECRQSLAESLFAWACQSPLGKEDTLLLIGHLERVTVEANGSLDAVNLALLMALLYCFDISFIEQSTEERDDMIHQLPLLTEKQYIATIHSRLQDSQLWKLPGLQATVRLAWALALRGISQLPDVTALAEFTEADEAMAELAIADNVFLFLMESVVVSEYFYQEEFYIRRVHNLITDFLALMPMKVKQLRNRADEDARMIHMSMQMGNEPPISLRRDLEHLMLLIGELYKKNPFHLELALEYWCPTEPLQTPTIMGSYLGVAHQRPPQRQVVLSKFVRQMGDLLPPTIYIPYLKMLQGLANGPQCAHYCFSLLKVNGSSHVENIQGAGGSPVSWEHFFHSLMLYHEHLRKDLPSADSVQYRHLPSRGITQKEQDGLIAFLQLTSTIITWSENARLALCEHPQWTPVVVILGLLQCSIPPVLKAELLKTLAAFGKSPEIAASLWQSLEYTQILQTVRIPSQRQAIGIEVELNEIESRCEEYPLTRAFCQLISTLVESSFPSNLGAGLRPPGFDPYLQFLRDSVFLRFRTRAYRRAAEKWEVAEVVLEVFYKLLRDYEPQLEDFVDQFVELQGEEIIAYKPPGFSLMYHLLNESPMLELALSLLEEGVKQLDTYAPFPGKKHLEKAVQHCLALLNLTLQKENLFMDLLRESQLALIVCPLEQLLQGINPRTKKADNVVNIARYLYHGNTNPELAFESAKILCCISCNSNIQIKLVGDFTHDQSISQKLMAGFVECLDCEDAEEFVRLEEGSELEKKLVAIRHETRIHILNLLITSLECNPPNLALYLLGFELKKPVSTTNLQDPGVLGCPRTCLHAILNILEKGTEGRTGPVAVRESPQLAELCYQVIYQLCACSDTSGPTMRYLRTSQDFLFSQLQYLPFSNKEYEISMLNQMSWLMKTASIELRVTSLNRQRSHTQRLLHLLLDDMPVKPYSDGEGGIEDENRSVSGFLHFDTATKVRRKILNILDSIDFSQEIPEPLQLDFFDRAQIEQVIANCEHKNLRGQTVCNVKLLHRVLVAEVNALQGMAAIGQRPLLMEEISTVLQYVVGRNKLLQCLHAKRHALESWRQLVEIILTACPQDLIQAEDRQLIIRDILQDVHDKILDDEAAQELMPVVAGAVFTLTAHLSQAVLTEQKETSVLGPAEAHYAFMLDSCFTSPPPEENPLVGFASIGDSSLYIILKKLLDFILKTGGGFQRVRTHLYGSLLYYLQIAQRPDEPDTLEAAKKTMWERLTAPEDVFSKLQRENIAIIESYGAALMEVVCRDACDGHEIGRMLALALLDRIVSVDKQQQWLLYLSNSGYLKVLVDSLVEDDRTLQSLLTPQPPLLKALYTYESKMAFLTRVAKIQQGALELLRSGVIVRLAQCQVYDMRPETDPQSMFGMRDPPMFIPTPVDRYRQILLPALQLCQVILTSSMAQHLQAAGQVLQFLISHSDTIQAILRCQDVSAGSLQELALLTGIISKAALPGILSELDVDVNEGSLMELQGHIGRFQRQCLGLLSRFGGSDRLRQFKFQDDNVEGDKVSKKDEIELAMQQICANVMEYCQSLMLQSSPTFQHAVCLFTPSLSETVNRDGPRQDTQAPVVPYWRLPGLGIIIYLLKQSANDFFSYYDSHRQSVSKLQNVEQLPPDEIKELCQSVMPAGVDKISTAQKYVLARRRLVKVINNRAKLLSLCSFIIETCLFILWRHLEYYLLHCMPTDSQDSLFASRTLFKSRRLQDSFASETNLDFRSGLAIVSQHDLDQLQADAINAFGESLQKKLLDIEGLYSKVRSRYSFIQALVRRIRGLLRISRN

[7] = HeLa, protein ACADS (SHORT-CHAIN SPECIFIC ACYL-COA DEHYDROGENASE, MIT[…])

Compound	fold changes relative to vehicle control ([1]; HeLa, captured protein GPHN)	fold changes relative to vehicle control ([2]; HeLa, captured protein CNN2)	fold changes relative to vehicle control ([3]; HeLa, protein FANCI)	fold changes relative to vehicle control [4, 7]	fold changes relative to vehicle control ([5]; HeLa, captured protein COX5A)	fold changes relative to vehicle control ([6]; HeLa, captured protein NUP205)	fold changes relative to vehicle control ([1]; protein GPHN, HeLa)	fold changes relative to vehicle control ([2]; HeLa, protein CNN2)	fold changes relative to vehicle control ([3]; protein FANCI, HeLa)	fold changes relative to vehicle control ([4]; protein ACADS, HeLa)	fold changes relative to vehicle control ([5]; captured protein COX5A, HeLa)	fold changes relative to vehicle control ([6]; captured protein NUP205, HeLa)	other results
Nc1nc2c(c(=O)[nH]1)N(C=O)C(CNc1ccc(C(=O)N[C@@H](CCC(=O)O)C(=O)O)cc1)CN2 (stereo partly drawn) [LEU, leucovorin]	0.81	0.97	0.87	1.06	1.23	1.03							
Nc1nc2[nH]cc(CCc3ccc(C(=O)N[C@@H](CCC(=O)O)C(=O)O)cc3)c2c(=O)[nH]1 [PTX, pemetrexed]													fold changes relative to vehicle control [1]: 0.83; fold changes relative to vehicle control [2]: 0.96; fold changes relative to vehicle control [3]: 1.04; fold changes relative to vehicle control [4]: 1.09; fold changes relative to vehicle control [5]: 1.5; fold changes relative to vehicle control [6]: 1.09
CCCCCCOc1ccc(Cc2cnc(N)nc2N)cc1 [compound 1]							0.94	0.81	1	0.91	0.98	1.03	
CCCCCCOc1cccc(Cc2cnc(N)nc2N)c1 [compound 2]							0.93	0.95	1.02	1.1	0.91	1.1	
Nc1nc2cccc(-c3ccccc3)c2n1Cc1ccc(Cl)c(Cl)c1 [compound 3]							0.96	1.07	1.19	0.99	1.18	1.18	
NCCOCCOCC(=O)Nc1nc2ncc(CNc3ccc(C(=O)NC(CCC(=O)O)C(=O)O)cc3)nc2c(=O)[nH]1 (stereo not drawn) [compound 6]	0.99	0.93	1.11	1.07	1.87	1.16							
NCCCNc1ccc(C(=O)NC(CCC(=O)O)C(=O)O)cc1 (stereo not drawn) [compound 7]	1.03	1.33	1.09	1.04	1.63	1.16							
